{
  "source": "patent US12678453B2",
  "about": "“Aerosolized formulations of HIV protease inhibitors for the treatment of airway reflux” (The Medical College of Wisconsin, Inc., priority 2020, dated 2026)",
  "key": {"porcine pepsin [1]": {"molecular_target": "T1, porcine pepsin (Sus scrofa, UniProt P00791)", "T1 construct": "purchased Worthington (Lakewood, NJ)", "T1 sequence (P00791 60-385)": "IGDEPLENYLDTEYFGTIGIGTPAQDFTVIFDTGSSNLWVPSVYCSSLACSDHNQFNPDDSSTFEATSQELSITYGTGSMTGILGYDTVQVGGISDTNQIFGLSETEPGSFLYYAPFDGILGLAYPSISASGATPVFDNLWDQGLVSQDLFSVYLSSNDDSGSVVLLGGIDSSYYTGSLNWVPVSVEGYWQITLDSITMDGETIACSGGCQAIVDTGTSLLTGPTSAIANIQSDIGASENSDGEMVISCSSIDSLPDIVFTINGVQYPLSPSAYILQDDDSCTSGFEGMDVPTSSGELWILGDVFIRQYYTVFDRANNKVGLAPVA", "experiment": "peptic activity assay (fluorescence polarization, casein-Alexa647 substrate)", "assay_type": "biochemical", "settings": "for inhibition of pepsin activity: 200 nM casein-Alexa647, 0.01 U/μL pepsin, 5% DMSO, FIG. 3B; for IC50 for pepsin: bind to and inhibit pepsin, numbers only in FIG. 3", "from_the_text": "(§1) Fluorescent polarization assays were developed to test compound binding and inhibition of pepsin (FIG. 1). A competitive binding assay was developed using pepstatin, a known inhibitor of pepsin with subnanomolar affinity^91 (Roberts 2003). This binding assay measures the relative binding affinity but not the enzymatic inhibition of compounds. Thus, a separate peptic activity assay was developed, which uses fluorescently labelled alpha casein as substrate. Both assays are based on the principle of fluorescence polarization (FP), which holds that as the molecular size of a fluorescent species is altered through dissociation/breakdown or association/binding events, the degree of depolarization of plane polarized light changes accordingly, directly affecting the FP value.^92 (Lea 2011). In the assays used herein, millipolarization (mP) decreases as casein-Alexa647 is degraded by pepsin and increases with binding of pepsin to pepstatin-Alexa647.\nCasein was labeled as described by Jolley (1996)^93 using a 2.5 ug/mg label to protein ratio. Specifically, 200 ul 10 mg/ml bovine alpha casein (C6780 Sigma Aldrich, St. Louis, MO) in 0.1M sodium bicarbonate was incubated with 5 ul 1 mg/ml Alexa Fluor 647 Carboxylic Acid, Succinimidyl Ester (in DMSO; A-20106 ThermoFisher Scientific, Waltham, MA) for 15 minutes at room temperature. The mixture was applied to a Sephadex G-25 column (90×5 mm) in a glass Pasteur pipette. Elution was performing using D-PBS pH7.4 (ThermoFisher Scientific) containing 0.1% sodium azide. The fast-moving band containing casein-bound fluorophore was collected in a volume of approximately 0.4 ml. Concentration of resultant probe (casein-Alexa647 in PBS-azide) was estimated via spectrophotometry using Beer's law (Implen Nanophotometer, Implen, Inc. Westlake Village, CA). Probe was aliquoted and stored at −20° C. until use.\n(§2) Assays were performed in 20 ul volumes in 384-well black optical plates (Nunc, Roskilde, DK). Pepstatin dose response curves were used to optimize pepsin/inhibitor concentrations and assay incubation times. Dose response was performed using 0.3-1000 uM unlabeled pepstatin with 100-500 nM pepstatin-Alexa647 probe, 0.003-3U/μl porcine pepsin (Worthington, Lakewood, NJ), and 10-37% dimethyl sulfoxide (HIV protease inhibitor diluent) in 0.1M HCl, pH1+0.01% Tween-20. Reagents were combined (with pepsin added last) in 50% of the final reaction volume for mixing and immediately read on a BioTek Cytation (BioTek Instruments, Winooski, VT) with far-red FP filter cube at excitation/emission of […] for five minutes, in at least triplicate. Averaged polarization values of replicate reads were plotted against probe or labeled pepstatin concentrations in GraphPad Prism 8 (La Jolla, CA). Reagent concentrations yielding greatest dynamic range were selected for the assay. The peptic activity assay was optimized similarly using casein-Alexa647 probe in 0.1M HCl, pH1+0.01% Tween-20. Reagents were combined (adding pepsin last) and read immediately at minimal intervals (<2 minutes apart) over 30 minutes. The assay was performed in triplicate and mean polarization value was plotted over time.\nHIV protease inhibitors were dissolved in DMSO. […] Compounds were tested under optimized assay conditions over a range of three logs concentration in triplicate and plotted using GraphPad Prism 8. Half-maximal inhibitory concentration (IC50) were calculated from kinetic traces analyzed using an online tool (icekat.herokuapp.com/icekat, O1p 2019^95). Percent bound and percent activity were calculated by normalization to the measured polarization value without HIV protease inhibitor compound.\nOur team developed and optimized two high-throughput screening (HTS) assays to identify compounds that are specific and sensitive inhibitors of pepsin (FIG. 1). The first assay is a binding assay that measures the ability of a compound to compete with fluorescently labeled pepstatin for its binding site on pepsin."}, "porcine pepsin [2]": {"molecular_target": "T1, porcine pepsin", "experiment": "competitive binding assay (fluorescence polarization, pepstatin-Alexa647 probe)", "settings": "100 nM pepstatin-Alexa647, 0.03U/ul pepsin, 37.5% DMSO; FIG. 3A", "from_the_text": "as §1, §2\nHIV protease inhibitors were dissolved in DMSO. Amprenavir, ritonavir, lopinavir, saquinavir mesylate, nelfinavir mesylate hydrate, darunavir ethanolate, indinavir sulfate salt hydrate were obtained from Sigma-Aldrich. […] Half-maximal inhibitory concentration (IC50) were calculated from kinetic traces analyzed using an online tool (icekat.herokuapp.com/icekat, O1p 2019^95). Percent bound and percent activity were calculated by normalization to the measured polarization value without HIV protease inhibitor compound. […]"}},
  "note": "Entries after “also recorded” stand apart in the source; their conditions may differ.",
  "data": [
    {"compound": "CC(C)CN(C[C@@H](O)[C@H](Cc1ccccc1)NC(=O)O[C@H]1CO[C@H]2OCC[C@H]21)S(=O)(=O)c1ccc(N)cc1", "note": "[darunavir, [(3a S,4R,6aR)-2,3,3a,4,5,6a-hexahydrofuro[2,3-b]furan-4-yl] N-[(2S,3R)-4-[(4-aminophenyl)sulfonyl-(2-methylpropyl)amino]-3-hydroxy-1-phenylbutan-2-yl]carbamate]", "values": [
      {"measurement": "inhibition of pepsin activity", "setting": "porcine pepsin [1]", "value": "inhibition of pepsin activity"},
      {"measurement": "IC50 for pepsin", "setting": "porcine pepsin [1]", "value": "low micromolar range; also recorded: lowest IC50"},
      {"measurement": "competitive binding to pepsin", "setting": "porcine pepsin [2]", "value": "competitive binding to pepsin"}
    ]},
    {"compound": "CC(C)(C)NC(=O)[C@@H]1C[C@@H]2CCCC[C@@H]2CN1C[C@@H](O)[C@H](Cc1ccccc1)NC(=O)[C@H](CC(N)=O)NC(=O)c1ccc2ccccc2n1", "note": "[saquinavir, (2S)—N-[(2S,3R)-4-[(3 S,4aS,8aS)-3-(tert-butylcarbamoyl)-3,4,4a,5,6,7,8,8a-octahydro-1H-isoquinolin-2-yl]-3-hydroxy-1-phenylbutan-2-yl]-2-(quinoline-2-carbonylamino)butanediamide]", "values": [
      {"measurement": "inhibition of pepsin activity", "setting": "porcine pepsin [1]", "value": "inhibition of pepsin activity"},
      {"measurement": "IC50 for pepsin", "setting": "porcine pepsin [1]", "value": "low micromolar range"},
      {"measurement": "competitive binding to pepsin", "setting": "porcine pepsin [2]", "value": "competitive binding to pepsin"}
    ]},
    {"compound": "CC(C)c1nc(CN(C)C(=O)N[C@H](C(=O)N[C@@H](Cc2ccccc2)C[C@H](O)[C@H](Cc2ccccc2)NC(=O)OCc2cncs2)C(C)C)cs1", "note": "[ritonavir, 1,3-thiazol-5-ylmethyl N-[(2S,3 S,5S)-3-hydroxy-5-[[(2S)-3-methyl-2-[[methyl-[(2-propan-2-yl-1,3-thiazol-4-yl)methyl]carbamoyl]amino]butanoyl]amino]-1,6-diphenylhexan-2-yl]carbamate]", "values": [
      {"measurement": "inhibition of pepsin activity", "setting": "porcine pepsin [1]", "value": "inhibition of pepsin activity"},
      {"measurement": "competitive binding to pepsin", "setting": "porcine pepsin [2]", "value": "competitive binding to pepsin"}
    ]},
    {"compound": "CC(C)CN(C[C@@H](O)[C@H](Cc1ccccc1)NC(=O)O[C@H]1CCOC1)S(=O)(=O)c1ccc(N)cc1", "note": "[amprenavir, [(3S)-oxolan-3-yl] N-[(2S,3R)-4-[(4-aminophenyl)sulfonyl-(2-methylpropyl)amino]-3-hydroxy-1-phenylbutan-2-yl]carbamate]", "values": [
      {"measurement": "inhibition of pepsin activity", "setting": "porcine pepsin [1]", "value": "inhibition of pepsin activity"},
      {"measurement": "IC50 for pepsin", "setting": "porcine pepsin [1]", "value": "low micromolar range"},
      {"measurement": "competitive binding to pepsin", "setting": "porcine pepsin [2]", "value": "competitive binding to pepsin"}
    ]}
  ]
}
